Results on 5 molecules are retold here after US6299865A, “Reduction of hair growth” (priority 2000, dated 2001).

Test [1] deals with tissue nonspecific form of alkaline phosphatase. The conditions noted are these: several species; cited from earlier work.
Another test has as its system Human hair follicles. Put plainly: Human hair follicle growth assay. Format: cell-based. The conditions noted are these: 0.1 mM, control 0.77 ± .09. The method, then:
Human hair follicles in growth phase (anagen) were isolated from face-lift tissue under a dissecting scope using a scalpel and watchmakers forceps. The skin was sliced into thin strips exposing 2-3 rows of follicles that could readily be dissected. Follicles were placed into 0.5 mL Williams E medium (Life Technologies, Gaithersburg, Md.) supplemented with […] L-glutamine, 10 μg/mL insulin, 10 ng/mL hydrocortisone, 100 units penicillin, 0.1 mg/mL streptomycin and 0.25 μg/mL amphotericin B. The follicles were incubated in 24 well plates (1 follicle/well) at 37° C. in an atmosphere of 5% CO2 and 95% air. Hair follicles were video recorded in the 24-well plates under the dissecting scope under a power of 20×. Typically, initial recordings were made on day 0 (day follicles were placed in culture) or day 1, and again on days 7 or 8. Hair follicle lengths were assessed using an image analysis software system (Computer Eyes and NIH Image).

The subject of test [2] is tissue-specific form of alkaline phosphatase. The conditions noted are these: stereoselective: only the L-form is active; uncompetitive; cited from earlier work.

Take `N=C(N)NCCCC[C@H](N)C(=O)O` [L-homoarginine]: the “Inhibition of tissue nonspecific form of alkaline phosphatase” value in test [1] was “acts as an inhibitor”. In the case of `[Na+].[Na+].[Na+].[O]=[V]([O-])([O-])[O-]` [Sodium Orthovanadate, sodium orthovanadate], the “Hair Follicle Length Increase (Day 6-Day 0)” value with Human hair follicles was 0.32 ± .06 mm. For `CC(C)C[C@H](N)C(=O)O` [leucine], the “Inhibition of tissue-specific form of alkaline phosphatase” value in test [2] is on record as “inhibit”. As to `N[C@@H](Cc1ccccc1)C(=O)O` [phenylalanine], in test [2], the “Inhibition of tissue-specific form of alkaline phosphatase” value is “inhibit”. On to `N[C@@H](Cc1c[nH]c2ccccc12)C(=O)O` [tryptophan], for which the “Inhibition of tissue-specific form of alkaline phosphatase” value in test [2] is “inhibit”.
